PubChem BioAssay (NCI)
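Grown in 96-well plates, cells were treated for 48 hours with each compound at five concentrations. Insufficient inhibition: endpoint recorded as highest concentration tested. GI50 = concentration required for 50% inhibition of growth. The concentration for full growth arrest is given as TGI.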

Columns and labels:
Experiment in all cases: inhibition of tumour cell growth, NCI panel, 48 h
[1] = system: CAKI-1 renal
[2] = system: DU-145 prostate
[3] = system: HCC-2998 colon
[4] = system: HOP-62 NSCLC
[5] = system: HT29 colon
[6] = system: MDA-MB-231 breast
[7] = system: NCI-H23 lung
[8] = system: NCI-H522 lung
[9] = system: SW-620 colon
[10] = system: SR leukemia

With `O=C(CCCc1ccccn1)c1ccccc1` the TGI [1] was over 100 µM, the TGI [2] was over 100 µM and the TGI [3] was over 100 µM. It also gave a TGI [4] of over 100 µM, a TGI [5] of over 100 µM and a TGI [6] of over 100 µM. For the same compound, the TGI [7] was over 100 µM, the TGI [8] was over 100 µM and the TGI [9] was over 100 µM.

In the case of `CC1=C(c2cc(C(=O)Nc3ccc(Cl)c(Cl)c3)nc(N)n2)Sc2ccccc2N1`, the TGI [1] is reported as over 100 µM, the TGI [3] is reported as over 100 µM and the TGI [4] is reported as over 100 µM. The TGI [5] was over 100 µM, the TGI [7] was over 100 µM and the TGI [8] was over 100 µM. For the same compound, the TGI [10] was over 100 µM and the TGI [9] was over 100 µM.

`NCC1OC(OC2C(CO)OC(OC3C(O)C(N)CC(N)C3OC3OC(CO)C(O)C(O)C3N)C2O)C(N)C(O)C1O` (stereo not given) gave a GI50 [1] of over 50 µg/mL, a TGI [1] of over 50 µg/mL and a GI50 [3] of over 50 µg/mL. For the same compound, the TGI [3] was over 50 µg/mL, the GI50 [4] was over 50 µg/mL and the TGI [4] was over 50 µg/mL. It also gave a GI50 [5] of over 50 µg/mL, a TGI [5] of over 50 µg/mL and a GI50 [6] of over 50 µg/mL. For the same compound, the TGI [6] was over 50 µg/mL, the GI50 [7] was over 50 µg/mL and the TGI [7] was over 50 µg/mL. For the same compound, the GI50 [8] was over 50 µg/mL, the TGI [8] was over 50 µg/mL and the GI50 [9] was over 50 µg/mL. For the same compound, the TGI [9] was over 50 µg/mL.

`CCOc1ccc(N=Nc2ccc3oc(=O)c(C(=O)Nc4ccc(OC)cc4)cc3c2)cc1` showed a TGI [1] of over 100 µM, a TGI [3] of 36.8 µM and a TGI [4] of 63.6 µM. The TGI [5] was over 100 µM, the TGI [7] was 56.9 µM and the TGI [8] was 87.8 µM. It also gave a TGI [9] of over 100 µM.

In the case of `CNC(C)C(=O)N[C@H](C(=O)N1CCC[C@@H]1CN(CCc1ccccc1)C(=O)C(F)(F)F)[C@H](C)OCC#CC#CCO[C@H](C)[C@H](NC(=O)[C@H](C)NC)C(=O)N1CCC[C@H]1CN(CCc1ccccc1)C(=O)C(F)(F)F` (stereo not given in full), the GI50 [1] is reported as 2.39 µM, the TGI [1] is reported as 5.51 µM and the GI50 [2] is reported as 1.56 µM. For the same compound, the TGI [2] was 3.05 µM, the GI50 [3] was 1.45 µM and the TGI [3] was 3.04 µM. It also gave a GI50 [4] of 0.729 µM, a TGI [4] of 2.46 µM and a GI50 [5] of 0.465 µM. For the same compound, the TGI [5] was 1.53 µM, the GI50 [6] was under 0.01 µM and the TGI [6] was under 0.01 µM. For the same compound, the GI50 [7] was 1.16 µM, the TGI [7] was 2.68 µM and the GI50 [8] was 0.724 µM. It also gave a TGI [8] of 2.18 µM, a GI50 [9] of 1.63 µM and a TGI [9] of 3.16 µM.

Work on `Cc1cc(C)cc(Sc2c([N+](=O)[O-])ncn2C)c1` yielded a TGI [1] of 89.2 µM, a TGI [3] of 92.7 µM and a TGI [4] of over 100 µM. It also gave a TGI [5] of 38.7 µM, a TGI [7] of 33.3 µM and a TGI [8] of 20 µM. For the same compound, the TGI [10] was 41 µM and the TGI [9] was 41.4 µM.

With `O=C1C(Cl)=C(Nc2cccc(O)c2)C(=O)N1c1ccc(Cl)c(Cl)c1` the GI50 [1] was 22.8 µM, the TGI [1] was 59.1 µM and the GI50 [2] was 19.3 µM. The TGI [2] was 42.1 µM, the GI50 [3] was 15 µM and the TGI [3] was 29.5 µM. For the same compound, the GI50 [4] was 16.4 µM, the TGI [4] was 32.5 µM and the GI50 [7] was 15.4 µM. For the same compound, the TGI [7] was 31.3 µM, the GI50 [8] was 30 µM and the TGI [8] was over 100 µM. The GI50 [10] was 14.2 µM and the TGI [10] was 67.1 µM.

For `CC[O-].Cc1ccc2cccc([O-])c2n1.Cc1ccc2cccc([O-])c2n1.Cc1ccc2cccc([O-])c2n1.[Ti+4]`, the GI50 [1] was over 86.6 µM, the TGI [1] was over 100 µM and the GI50 [3] was 27.5 µM. It also gave a TGI [3] of over 67.8 µM, a GI50 [4] of 53.6 µM and a TGI [4] of over 100 µM. For the same compound, the GI50 [5] was 30.6 µM, the TGI [5] was over 88.9 µM and the GI50 [7] was over 63.5 µM. For the same compound, the TGI [7] was over 100 µM, the GI50 [8] was 14 µM and the TGI [8] was 30.4 µM. For the same compound, the GI50 [9] was 29.6 µM and the TGI [9] was over 61.1 µM.

In the case of `CC(C)(C)[Si](C)(C)O/N=C\c1ccc(O[Si](C)(C)C(C)(C)C)cc1`, the TGI [1] is reported as over 100 µM, the TGI [3] is reported as over 100 µM and the TGI [4] is reported as over 100 µM. For the same compound, the TGI [5] was over 100 µM, the TGI [7] was over 100 µM and the TGI [9] was over 100 µM.

Compound `C[C@H]1CC(=O)C2=CCCC3(SCCCS3)[C@@H]2[C@H]1CO` has a TGI [1] of over 100 µM, a TGI [3] of over 100 µM and a TGI [4] of over 100 µM. It also gave a TGI [5] of over 100 µM, a TGI [7] of over 100 µM and a TGI [8] of over 100 µM. The TGI [10] was over 100 µM and the TGI [9] was over 100 µM.

For `CCC1CC(=O)N(SCC(N)C(=O)O)C1=O` (stereo not given), the TGI [1] was over 100 µM, the TGI [2] was over 100 µM and the TGI [4] was over 100 µM. It also gave a TGI [5] of over 100 µM, a TGI [6] of over 100 µM and a TGI [7] of over 100 µM. For the same compound, the TGI [8] was over 100 µM, the TGI [10] was over 100 µM and the TGI [9] was over 100 µM.

For `CN1c2ccccc2S(=O)(=O)n2c(COc3ccc(Cl)cc3)nnc21`, the TGI [1] was over 100 µM, the TGI [2] was over 100 µM and the TGI [3] was over 100 µM. It also gave a TGI [4] of 47.8 µM, a TGI [5] of over 100 µM and a TGI [6] of over 100 µM. For the same compound, the TGI [7] was over 100 µM, the TGI [8] was over 100 µM and the TGI [9] was over 100 µM.

Compound `O=C1/C(=C\c2coc3ccccc3c2=O)c2ccccc2N1c1c(Cl)cccc1Cl` has a GI50 [1] of 2.45 µM, a TGI [1] of over 100 µM and a GI50 [2] of 4.71 µM. It also gave a TGI [2] of over 100 µM, a GI50 [3] of 5.33 µM and a TGI [3] of over 100 µM. The GI50 [4] was 4.77 µM, the TGI [4] was over 100 µM and the GI50 [5] was 3.05 µM. For the same compound, the TGI [5] was over 100 µM, the GI50 [6] was 3.88 µM and the TGI [6] was over 100 µM. It also gave a GI50 [7] of 4.45 µM, a TGI [7] of over 100 µM and a GI50 [10] of 1.44 µM. It also gave a TGI [10] of 56.4 µM, a GI50 [9] of 5.28 µM and a TGI [9] of over 100 µM.

`CN(c1ccccc1)C1C(=O)N(c2ccccc2)C1/C=C/c1ccccc1` (stereo not given) showed a TGI [1] of over 100 µM, a TGI [3] of over 100 µM and a TGI [5] of over 100 µM. For the same compound, the TGI [7] was over 100 µM, the TGI [8] was over 100 µM and the TGI [10] was over 100 µM. It also gave a TGI [9] of over 100 µM.

`C=C1Oc2nc3ccccc3c(=O)n2C1(C)C` showed a TGI [1] of over 100 µM, a TGI [3] of over 100 µM and a TGI [4] of over 100 µM. For the same compound, the TGI [5] was over 100 µM, the TGI [7] was over 100 µM and the TGI [8] was over 100 µM. The TGI [9] was over 100 µM.

`Cc1cc(C(=O)N2CCN(Cc3ccccc3)CC2)c(C)o1` was tested, and the TGI [1] was over 100 µM, the TGI [3] was over 100 µM and the TGI [4] was over 100 µM. For the same compound, the TGI [5] was over 100 µM, the TGI [7] was over 100 µM and the TGI [8] was over 100 µM. For the same compound, the TGI [10] was over 100 µM and the TGI [9] was over 100 µM.

`O=C(NNC(=O)c1ccncc1)c1ccncc1` gave a TGI [1] of over 100 µM, a TGI [2] of over 100 µM and a TGI [4] of over 100 µM. For the same compound, the TGI [5] was over 100 µM, the TGI [6] was over 100 µM and the TGI [7] was over 100 µM. It also gave a TGI [8] of over 100 µM, a TGI [10] of over 100 µM and a TGI [9] of over 100 µM.

With `COc1ccc(/C=C/c2cc(N3CCOCC3)c3cc(F)c(F)cc3n2)cc1OC` the GI50 [1] was 0.394 µM, the TGI [1] was 3.24 µM and the GI50 [2] was 1.58 µM. For the same compound, the TGI [2] was 11.8 µM, the GI50 [3] was 0.876 µM and the TGI [3] was 4.21 µM. For the same compound, the GI50 [4] was 0.667 µM, the TGI [4] was 7.25 µM and the GI50 [6] was 0.483 µM. The TGI [6] was 4.66 µM, the GI50 [7] was 1.12 µM and the TGI [7] was 6.11 µM. The GI50 [8] was 0.454 µM, the TGI [8] was 2.72 µM and the GI50 [10] was 0.431 µM. It also gave a TGI [10] of 6.78 µM, a GI50 [9] of 0.667 µM and a TGI [9] of 11.6 µM.

`C=C(CS(=O)(=O)c1ccccc1)[P+](c1ccccc1)(c1ccccc1)c1ccccc1` showed a TGI [1] of 65.9 µM, a TGI [3] of 47.2 µM and a TGI [4] of 90 µM. The TGI [5] was 37.3 µM, the TGI [7] was 62.7 µM and the TGI [8] was 44.1 µM. For the same compound, the TGI [9] was 51.1 µM.
